Laboratory results as given in PMC4545587 (Biochimica et biophysica acta, 2013).
No end group written: not given here.

Key:
[1] = test system: Pseudomonas aeruginosa type 1; format: cell-based
eukaryotic cells = conditions: cited from earlier work

## KLFKRHLKWKII [SC4]
[1]; type 1
  MIC value against P. aeruginosa: ~ 18 µM
[1]; type 1, pH 7
  P.a. LD50: 0.14 µM
Eukaryotic cells
  lytic effect on eukaryotic cells: no apparent lytic effect
